Legend:
human SGLT2 = target: T1, human SGLT2 (Homo sapiens, UniProt P31639); experiment: SGLT2 in vitro assay: Na-dependent 14C-AMG uptake in CHO-K1 cells stably expressing human SGLT2; assay type: cell-based; settings: CHO-K1 cells stably expressing human SGLT2, 14C-AMG uptake; for inhibition at 0.3 µM: read-out: SGLT2 % Inh @ 0.3 μM; for IC50: compounds of formula (I) where R0 is fluoro
T1 construct: expressed in transfected cells
T1 sequence (P31639 1-672): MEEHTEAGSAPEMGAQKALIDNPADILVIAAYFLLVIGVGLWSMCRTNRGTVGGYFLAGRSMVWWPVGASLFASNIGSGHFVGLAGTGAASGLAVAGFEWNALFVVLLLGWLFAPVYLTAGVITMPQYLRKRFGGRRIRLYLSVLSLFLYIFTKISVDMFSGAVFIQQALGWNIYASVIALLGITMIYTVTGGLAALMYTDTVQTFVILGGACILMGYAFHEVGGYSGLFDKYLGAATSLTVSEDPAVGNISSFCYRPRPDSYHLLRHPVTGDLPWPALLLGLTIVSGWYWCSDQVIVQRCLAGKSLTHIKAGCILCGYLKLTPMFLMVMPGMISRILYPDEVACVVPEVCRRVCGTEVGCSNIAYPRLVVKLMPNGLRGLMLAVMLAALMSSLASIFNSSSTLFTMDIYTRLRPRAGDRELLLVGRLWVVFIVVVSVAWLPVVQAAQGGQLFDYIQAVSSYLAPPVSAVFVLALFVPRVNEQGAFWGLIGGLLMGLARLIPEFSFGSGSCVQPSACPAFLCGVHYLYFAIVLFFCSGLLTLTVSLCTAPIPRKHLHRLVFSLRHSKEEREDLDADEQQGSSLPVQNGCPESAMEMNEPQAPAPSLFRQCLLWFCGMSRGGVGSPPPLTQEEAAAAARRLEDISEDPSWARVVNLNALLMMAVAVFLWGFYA
In short: (§1)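 CHO-K1 cells stably expressing human SGLT1 or SGLT2, induced with 10 mM Na-butyrate for 24 h. Compounds (0.001–10 μM) in Na+-containing HEPES/Tris buffer pH 7.4 were applied for 10 min, then 14C-AMG ([…]) for 2 h at 37°C; Na-dependent uptake read by scintillation; %-inhibition or IC50.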

human SGLT1 = target: T2, human SGLT1 (Homo sapiens, UniProt P13866); experiment: SGLT1 in vitro assay: Na-dependent 14C-AMG uptake in CHO-K1 cells stably expressing human SGLT1; assay type: cell-based; settings: CHO-K1 cells stably expressing human SGLT1, 14C-AMG uptake; for inhibition at 0.3 µM: read-out: SGLT1 % Inh @ 0.3 μM; for IC50: compounds of formula (I) where R0 is fluoro
T2 construct: expressed in transfected cells
T2 sequence (P13866 1-664): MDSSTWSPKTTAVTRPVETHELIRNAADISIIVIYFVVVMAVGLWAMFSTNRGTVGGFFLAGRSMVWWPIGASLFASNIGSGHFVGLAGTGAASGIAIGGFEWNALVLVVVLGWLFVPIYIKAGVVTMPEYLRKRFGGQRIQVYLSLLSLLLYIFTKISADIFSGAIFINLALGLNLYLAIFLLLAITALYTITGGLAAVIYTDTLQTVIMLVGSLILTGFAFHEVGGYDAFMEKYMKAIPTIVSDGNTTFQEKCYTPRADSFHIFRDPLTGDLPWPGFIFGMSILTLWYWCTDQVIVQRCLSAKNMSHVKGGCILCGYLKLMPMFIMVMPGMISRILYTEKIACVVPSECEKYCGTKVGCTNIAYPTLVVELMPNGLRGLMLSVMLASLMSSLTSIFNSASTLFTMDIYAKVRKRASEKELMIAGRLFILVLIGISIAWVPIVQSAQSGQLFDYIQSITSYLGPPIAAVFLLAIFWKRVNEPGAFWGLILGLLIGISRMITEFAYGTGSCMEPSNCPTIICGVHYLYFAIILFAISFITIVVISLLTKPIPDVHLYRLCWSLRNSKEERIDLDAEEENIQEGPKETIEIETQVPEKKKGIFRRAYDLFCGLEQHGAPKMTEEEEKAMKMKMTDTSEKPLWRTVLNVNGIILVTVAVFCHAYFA
In short: as §1

Row | Structure (SMILES) | SGLT2 % Inh @ 0.3 μM (human SGLT2) | SGLT1 % Inh @ 0.3 μM (human SGLT1) | inhibition at 0.3 µM (human SGLT2) | IC50 (human SGLT2) | inhibition at 0.3 µM (human SGLT1) | IC50 (human SGLT1)
1 | OC[C@H]1O[C@@H](c2cc(Cc3ccc(OCF)cc3)c(Cl)cc2O)[C@H](O)[C@@H](O)C1(F)F [Compound 125] | 90.2% | 32.9% |  |  |  | 
2 | OC[C@H]1O[C@@H](c2cc(Cc3ccc4c(c3)CCCO4)c(Cl)c3c2OCC3)[C@H](O)[C@@H](O)C1(F)F [Compound 126] | 87.1% | 28.7% |  |  |  | 
3 | CCc1ccc(Cc2cc([C@@H]3O[C@H](CO)C(F)(F)[C@H](O)[C@H]3O)c(O)cc2Cl)cc1 [Compound 127, (2S,3R,4R,6R)-2-{4-chloro-5-[(4-ethylphenyl)methyl]-2-hydroxyphenyl}-5,5-difluoro-6-(hydroxymethyl)oxane-3,4-diol] |  |  | 89.2% | 2.6 nM | 67.6% | 142 nM
4 | CCc1ccc(Cc2cc([C@@H]3O[C@H](CO)C(F)(F)[C@H](O)[C@H]3O)c(O)cc2CC)cc1 [Compound 128] |  |  | 88.7% | 7.7 nM | 79.5% | 120 nM
5 | CCc1ccc(Cc2cc([C@@H]3O[C@H](CO)C(F)(F)[C@H](O)[C@H]3O)c(OC)cc2C)cc1 [Compound 129] | 87.1% | 16.4% |  |  |  | 
6 | CCc1ccc(Cc2cc([C@@H]3O[C@H](CO)C(F)(F)[C@H](O)[C@H]3O)c(OC)cc2CC)cc1 [Compound 130] | 83.7% | 22.9% |  |  |  | 
7 | CCc1ccc(Cc2cc([C@@H]3O[C@H](CO)C(F)(F)[C@H](O)[C@H]3O)c(O)cc2C)cc1 [Compound 131, (2S,3R,4R,6R)-2-(5-(4-ethylbenzyl)-2-hydroxy-4-methylphenyl)-5,5-difluoro-6-(hydroxymethyl)tetrahydro-2H-pyran-3,4-diol] |  |  | 88.6% | 2.7 nM | 64.4% | 96 nM
8 | OC[C@H]1O[C@@H](c2cc(Cc3ccc4c(c3)SCCO4)c(Cl)c3c2OCC3)[C@H](O)[C@@H](O)C1(F)F [Compound 132] |  |  | 83.9% | 4.5 nM | 40.7% | 422 nM
9 | Cc1cc(O)c([C@@H]2O[C@H](CO)C(F)(F)[C@H](O)[C@H]2O)cc1Cc1ccc(OCF)cc1 [Compound 133] |  |  | 90.6% | 1.3 nM | 67.7% | 153 nM
10 | COc1cc(O)c([C@@H]2O[C@H](CO)C(F)(F)[C@H](O)[C@H]2O)cc1Cc1cc2c(s1)CCN(C#N)C2 [Compound 134] | 62.3% | 31.6% |  |  |  | 
11 | CCc1ccc(Cc2cc([C@@H]3O[C@H](CO)C(F)(F)[C@H](O)[C@H]3O)c(OC)cc2Cl)cc1 [Compound 135] | 88.0% | 16.5% |  |  |  | 
12 | OC[C@H]1O[C@@H](c2cc(Cc3ccc(C4CC4)cc3)c(Cl)cc2O)[C@H](O)[C@@H](O)C1(F)F [Compound 136] |  |  | 90.9% | 2.1 nM | 68.7% | 138 nM
13 | CCc1ccc(Cc2cc([C@@H]3O[C@H](CO)C(F)(F)[C@H](O)[C@H]3O)c(O)cc2C2CC2)cc1 [Compound 137] | 52.5% | 50.4% |  |  |  | 
14 | COc1cc(C)c(Cc2ccc(OCF)cc2)cc1[C@@H]1O[C@H](CO)C(F)(F)[C@H](O)[C@H]1O [Compound 138] |  |  | 76.7% | 1.9 nM | 40.3% | 836 nM
15 | COc1cc(O)c([C@@H]2O[C@H](CO)C(F)(F)[C@H](O)[C@H]2O)cc1Cc1ccc(C2CC2)cc1 [Compound 140] |  |  | 85.5% | 1.9 nM | 81.1% | 72 nM
16 | OC[C@H]1O[C@@H](c2cc(Cc3ccc(C4CC4)cc3)c(C3CC3)cc2O)[C@H](O)[C@@H](O)C1(F)F [Compound 141] |  |  | 82.8% | 44.9 nM | 78.8% | 95 nM
17 | COc1cc(O)c([C@@H]2O[C@H](CO)C(F)(F)[C@H](O)[C@H]2O)cc1Cc1ccc(OCF)cc1 [Compound 142] |  |  | 69.4% | 3 nM | 62.6% | 234 nM
18 | OC[C@H]1O[C@@H](c2cc(Cc3ccc(OCF)cc3)c(C3CC3)cc2O)[C@H](O)[C@@H](O)C1(F)F [Compound 143] | 62.9% | 72.3% |  |  |  | 
19 | COc1cc(OC)c([C@@H]2O[C@H](CO)C(F)(F)[C@H](O)[C@H]2O)cc1Cc1ccc(C2CC2)cc1 [Compound 144] | 75.0% | 30.6% |  |  |  | 
20 | CCc1ccc(Cc2cc([C@@H]3O[C@H](CO)C(F)(F)[C@H](O)[C@H]3O)c(O)cc2OC)cc1 [Compound 145] |  |  | 64.4% | 2.8 nM | 78.1% | 83 nM
21 | OC[C@H]1O[C@@H](c2cc3c(c(Cc4ccc(OCF)cc4)c2)OCC3)[C@H](O)[C@@H](O)C1(F)F [Compound 146] | 76.8% | 41.9% |  |  |  | 
22 | COc1cc(OC)c([C@@H]2O[C@H](CO)C(F)(F)[C@H](O)[C@H]2O)cc1Cc1ccc(OCF)cc1 [Compound 147] | 64.7% | 26.5% |  |  |  | 
23 | CCc1cc(O)c([C@@H]2O[C@H](CO)C(F)(F)[C@H](O)[C@H]2O)cc1Cc1ccc(OCF)cc1 [Compound 148] |  |  | 82.4% | 1.5 nM | 83% | 53 nM
24 | CCc1cc(O)c([C@@H]2O[C@H](CO)C(F)(F)[C@H](O)[C@H]2O)cc1Cc1ccc(C2CC2)cc1 [Compound 150] |  |  | 72.5% | 3.1 nM | 84.4% | 72 nM
25 | CCc1cc(OC)c([C@@H]2O[C@H](CO)C(F)(F)[C@H](O)[C@H]2O)cc1Cc1ccc(C2CC2)cc1 [Compound 151] |  |  | 88% | 6.2 nM | 52.1% | 644 nM
26 | CN(C)c1ccc(Cc2cc([C@@H]3O[C@H](CO)C(F)(F)[C@H](O)[C@H]3O)c(O)cc2C#N)cc1 [Compound 152] | 84.5% | 32.7% |  |  |  | 
27 | CCc1ccc(Cc2cc([C@@H]3O[C@H](CO)C(F)(F)[C@H](O)[C@H]3O)c(OC)cc2OC)cc1 [Compound 153] |  |  | 88.1% | 6.7 nM | 48.7% | 591 nM
